Measured values reported in US12076364B2, “Use of interference peptide in preparation of anti-SARS-CoV-2 medicament” (KUNMING INSTITUTE OF ZOOLOGY, CHINESE ACADEMY OF SCIENCES, priority 2020, dated 2024).
Where a SMILES comes first, the peptide text is derived from it. Where no end group is shown, it is not given here.

Tested on: SARS-CoV-2
Settings: 48 h; for inhibition of viral infection: 80 μM peptide, Vero E6 cells

Molecule | inhibition of viral infection [%] | EC50 [µM]
C[C@H](NC(=O)[C@@H](N)CCCNC(=N)N)C(=O)NCC(=O)N[C@@H](CCCCN)C(=O)O [RK4, RAGK] (H-RAGK-OH; N-terminus assumed) | 99 | 10
DQTKFPIVNAEL-OH [DL12] | 99 | 5
HPVTGQF [HF7, HPVTGQF] | 89 | 11.4
SDWKTD [SD6, SDWKTD] | 98 | 6.4
